From paper PMC11269731, “Pannexin-1 channel inhibition alleviates opioid withdrawal in rodents by modulating locus coeruleus to spinal cord circuitry” (Nature Communications, 2024) come the findings set out here.

For the experiment, the target named is T1, Pannexin-1 (rPanx1) (Rattus norvegicus, UniProt P60570).
T1 construct: gene Panx1; Rattus norvegicus Pannexin-1 cDNA in pRK5 (pRK5-rPanx1)
Put plainly: whole-cell patch clamp of HEK-293T cells transfected with rat Panx1. It is filed as cell-based. On the technique in general: The patch-clamp technique gives a direct electrical read-out from membranes.

Each structure is given as a SMILES string.

T1 sequence (P60570 whole entry): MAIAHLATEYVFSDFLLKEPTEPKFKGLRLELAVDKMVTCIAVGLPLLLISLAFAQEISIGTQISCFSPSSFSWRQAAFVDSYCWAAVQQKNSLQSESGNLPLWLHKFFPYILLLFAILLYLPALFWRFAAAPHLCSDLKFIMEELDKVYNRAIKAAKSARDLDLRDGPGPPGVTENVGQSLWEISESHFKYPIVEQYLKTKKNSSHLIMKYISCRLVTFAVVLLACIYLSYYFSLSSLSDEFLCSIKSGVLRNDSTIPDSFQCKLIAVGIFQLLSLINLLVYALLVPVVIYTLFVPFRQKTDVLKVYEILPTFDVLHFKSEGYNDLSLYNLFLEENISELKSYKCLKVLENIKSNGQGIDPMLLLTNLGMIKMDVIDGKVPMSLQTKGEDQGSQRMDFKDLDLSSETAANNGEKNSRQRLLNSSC

The IC50 is the concentration at which inhibition is half-maximal. Regarding `CCCN(CCC)S(=O)(=O)c1ccc(C(=O)O)cc1` [probenecid], the IC50 turned out to be 74.6 µM. Turning to `CCCN(CCC)S(=O)(=O)c1ccc(C(O)(C(F)(F)F)C(F)(F)F)cc1` [EG-2184, 4-(1,1,1,3,3,3-hexafluoro-2-hydroxypropan-2-yl)-N,N-dipropylbenzenesulfonamide], the IC50 was 0.054 µM.
